From patent US8735593B2, “Aminopyridines useful as inhibitors of protein kinases” (Vertex Pharmaceuticals Incorporated, priority 2007, dated 2014)
Read-outs that look alike come from different tables or passages of the source.

How the values were obtained:
[1] = tested on: amyloid-β peptide tissue levels; settings: mice over-expressing APP, treated over a three-week period; cited from earlier work
[2] = tested on: rat brains after transient middle cerebral artery occlusion (MCAO); settings: cited from earlier work
GSK3α TYR 279 = GSK3α TYR 279 (Homo sapiens (Human), UniProt P49840); assay: GSK-3α p-TYR inhibition assay, western blotting of Jurkat cells; type: cell-based; settings: compound incubated o/n, read-out: GSK3a pTYR 279: IC50
Experimental: (§1) Compounds are screened for their ability to inhibit the phosphorylation of tyrosine (TYR) residues through the use of western blotting of Jurkat cells dosed with the compounds. The phosphorylation of the specific TYR residues tested are GSK3α TYR 279 and GSK3β TYR 216.
(§2) Jurkat cells are seeded at a density of 2×10^5 cells/well in a 12 well dish in starvation media (RPMI+1% FBS+P/S). Following starvation for 16 hours, the compound is dosed into each well at a final DMSO concentration of 0.3% and cells are incubated o/n at 37° C. 5% CO2. The next day, cells are spun down at 1500 rpm, washed with PBS, and lysed in 100 uL Laemli sample buffer with β-mercaptoethanol.
(§3) 15 microliters (uL) of cell lysates are loaded onto a 10% tris-glycine gel and run at 120 v for 2 hours or until dye front runs off of the gel. The protein is then transferred onto a PVDF membrane at 100 v for 60 min. PBST (PBS containing 0.1% Tween 20, such as 1 ml Tween per 1 L of PBS) is then made up and used for all washes and antibody incubations. The blot is blocked in 5% nonfat milk PBST for one hour.
(§4) The primary antibody (GSK-3α/β pTYR 279/216 at 1:1000 dilution Upstate cat#05-413) is then added in 5%-nonfat milk PBST overnight at 4° C. with gentle rocking. The blot is then washed in PBST for 5 min. This is then repeated 4 times. A secondary anti-mouse-HRP conjugated antibody (1:5000 dilution) is added for 60 min in 5% milk PBST. The blot is then washed in PBST for 5 min. This is also repeated 4 times. 3.0 mL of the developing solution (ECL plus Western Blotting Detection System from Amersham/GE cat# RPN2132) is made and then added. The solution is swirled over the blot for ˜30 sec. The blot is then developed using CL-Xposure clear blue X-ray film. GAPDH expression level is used as a loading control, (GAPDH antibody: santa cruz 25-778) at 1:10000 dilution.
(§5) For determination of GSK-3α and GSK-3β pTYR IC50, the density of the respective bands for each protein at specific compound concentration is compared to a no compound DMSO treated control cell sample present on each exposure. IC50 numbers are defined as the concentration of compound in which the density of the GSK-3α or GSK-3β band is 50% of the no compound control.

GSK3β TYR 216 = GSK3β TYR 216 (Homo sapiens (Human), UniProt P49841); assay: GSK3β p-TYR inhibition assay, western blotting of Jurkat cells; type: cell-based; settings: compound incubated o/n, read-out: GSK3b pTYR 216: IC50
Experimental: as §1, §2, §3, §4, §5

GSK-3β (AA 1-420) = GSK-3β (AA 1-420) (Homo sapiens (Human), UniProt P49841); assay: GSK-3 Inhibition Assay (standard coupled enzyme system); type: biochemical; settings: 20 μM ATP, 300 μM peptide, 20 nM GSK-3β, 30° C.
Experimental: Compounds of the present invention were screened for their ability to inhibit GSK-3β (AA 1-420) activity using a standard coupled enzyme system (Fox et al., Protein Sci. 1998, 7, 2249). Reactions were carried out in a solution containing 100 mM HEPES (pH 7.5), 10 mM MgCl2, 25 mM NaCl, 300 μM NADH, 1 mM DTT and 1.5% DMSO. Final substrate concentrations in the assay were 20 μM ATP (Sigma Chemicals, St Louis, Mo.) and 300 μM peptide (American Peptide, Sunnyvale, Calif.). Reactions were carried out at 30° C. and 20 nM GSK-3β. Final concentrations of the components of the coupled enzyme system were 2.5 mM phosphoenolpyruvate, 300 μM NADH, 30 μg/ml pyruvate kinase and 10 μg/ml lactate dehydrogenase.
An assay stock buffer solution was prepared containing all of the reagents listed above with the exception of ATP and the test compound of the present invention. The assay stock buffer solution (175 μl) was incubated in a 96 well plate with 5 μl of the test compound of the present invention at final concentrations spanning 0.002 μM to 30 μM at 30° C. for 10 min. Typically, a 12-point titration was conducted by preparing serial dilutions (from 10 mM compound stocks) with DMSO of the test compounds of the present invention in daughter plates. The reaction was initiated by the addition of 20 μl of ATP (final concentration 20 μM). Rates of reaction were obtained using a Molecular Devices Spectramax plate reader (Sunnyvale, Calif.) over 10 min at 30° C. The Ki values were determined from the rate data as a function of inhibitor concentration.

[3] = tested on: β-catenin dependent TCF/LEF transcriptional activity; assay: β-Catenin stabilization protocol, β-lactamase reporter assay in Jurkat cells; type: cell-based; settings: Homo sapiens, 460/530 ratio 50% of the maximum effect, read-out: Beta Catenin IC50
From the text: GSK-3 phosphorylation of β-catenin targets it to the proteosome for degradation. Inhibition of GSK-3 results in accumulation of β-catenin in the cytosol of cells which through interaction with the transcription factor TCF/LEF translocates to the nucleus and drives the transcription of Wnt-dependent genes. The assay is designed to determine the level of β-catenin dependent TCF/LEF transcriptional activity in a quantitative manner through the use of a β-lactamase reporter assay in Jurkat cells dosed with a compound.
Jurkat β-catenin cells are starved overnight in assay media (1% FBS, 1× Penstrep, RPMI) in the flask. The next day Jurkat β-catenin cells are seeded in 96 well flat bottom plates at a density of 50,000 cells/well in assay media in a volume of 100 ul. The compound is added to the well at a final DMSO concentration of 0.75% and incubated at 37° C. o/n. The next day, 20 uL of 6×CCF4 dye is added to the wells and incubated at room temperature for 1-2 hours. Plates are read on the Cytofluor 4000 series multiwell plate reader and the 460/530 ratio is determined. The GSK-3 IC50 for induction of β-catenin is determined by plotting the 460/530 ratio against the concentration of compound (Log scale) and using the equation of the slope to calculate the point at which the ratio is 50% of the maximum effect.

[4] = read-out: Ki value, inhibition of GSK-3
[5] = read-out: Ki value, inhibition of GSK-3 (upper bound)

Chain of GSK3α TYR 279 (P49840 whole entry): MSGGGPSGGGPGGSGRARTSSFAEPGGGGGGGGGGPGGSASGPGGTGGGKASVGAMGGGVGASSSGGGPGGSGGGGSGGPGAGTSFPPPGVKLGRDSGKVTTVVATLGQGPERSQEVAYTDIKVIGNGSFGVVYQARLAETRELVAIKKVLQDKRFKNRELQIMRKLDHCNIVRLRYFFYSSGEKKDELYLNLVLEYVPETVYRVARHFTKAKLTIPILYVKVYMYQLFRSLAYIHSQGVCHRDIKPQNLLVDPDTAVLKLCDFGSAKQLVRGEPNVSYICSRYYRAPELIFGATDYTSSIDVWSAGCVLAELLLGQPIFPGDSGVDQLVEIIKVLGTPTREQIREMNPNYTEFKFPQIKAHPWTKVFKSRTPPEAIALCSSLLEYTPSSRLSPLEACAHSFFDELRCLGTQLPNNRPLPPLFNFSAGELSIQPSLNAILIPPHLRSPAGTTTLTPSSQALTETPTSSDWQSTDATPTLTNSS
Chain of GSK-3β (AA 1-420) (P49841 whole entry, species assumed, the tested form may be a part): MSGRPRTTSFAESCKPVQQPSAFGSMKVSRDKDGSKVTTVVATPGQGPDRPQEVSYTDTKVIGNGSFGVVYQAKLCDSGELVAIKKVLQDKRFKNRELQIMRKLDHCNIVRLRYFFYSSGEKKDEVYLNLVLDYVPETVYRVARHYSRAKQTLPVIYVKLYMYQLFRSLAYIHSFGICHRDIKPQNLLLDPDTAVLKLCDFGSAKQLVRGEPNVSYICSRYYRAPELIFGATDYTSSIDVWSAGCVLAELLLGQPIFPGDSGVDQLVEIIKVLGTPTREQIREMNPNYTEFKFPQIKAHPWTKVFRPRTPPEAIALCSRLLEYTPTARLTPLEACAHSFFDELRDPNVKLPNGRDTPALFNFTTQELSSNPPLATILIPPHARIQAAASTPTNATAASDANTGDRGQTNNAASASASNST
Chain of GSK3β TYR 216 (P49841 whole entry): as the sequence (P49841 whole entry, species assumed, the tested form may be a part) above

Molecule | IC50 (GSK3α TYR 279) | IC50 (GSK3β TYR 216) | Ki (GSK-3β (AA 1-420); [4]) | IC50 [3] | Ki (GSK-3β (AA 1-420); [5]) | decrease in amyloid-β peptide tissue levels [1] | infarct size [2]
[Li] [lithium] | – | – | – | – | – | > 50% | –
IGF-1: insulin growth factor-1, a known GSK-3 inhibitor | – | – | – | – | – | – | reduced infarct size
Cc1cc(Nc2n[nH]c3ncc(F)cc23)nc(-c2ccccc2Cl)c1C [Compound I-2] | 0.01 µM | 0.2 µM | ≤ 0.01 µM | > 10 µM | – | – | –
Cc1cc(Nc2ncc(C)s2)nc(-c2ccccc2Cl)c1 [Compound I-6] | – | – | > 0.01 µM | 1.3 µM | ≤ 1 µM | – | –
Cc1cc(-c2ccccc2Cl)nc(Nc2n[nH]c3ncc(F)cc23)c1C [Compound I-4] | 0.03 µM | 0.3 µM | > 0.01 µM | – | ≤ 1 µM | – | –
Cc1cc(Nc2n[nH]c3ncc(F)cc23)nc(-c2ccccc2)c1C [Compound I-5] | 0.0006 µM | 0.02 µM | ≤ 0.01 µM | 1.1 µM | – | – | –

Further lines, with some results ahead:

IC50 (GSK3α TYR 279) | IC50 (GSK3β TYR 216) | Ki (GSK-3β (AA 1-420); [4]) | IC50 [3] | Ki (GSK-3β (AA 1-420); [5]) | Molecule | decrease in amyloid-β peptide tissue levels [1] | infarct size [2]
0.002 µM | 0.03 µM | ≤ 0.01 µM | 2.7 µM | – | Cc1cc(Nc2n[nH]c3ncc(F)cc23)nc(-c2ccccc2Cl)c1 [Compound I-3] | – | –
0.003 µM | 0.05 µM | > 0.01 µM | 2.08 µM | ≤ 1 µM | Fc1cnc2[nH]nc(Nc3cc(C(F)(F)F)cc(-c4ccccc4Cl)n3)c2c1 [Compound I-1, N-(6-(2-chlorophenyl)-4-(trifluoromethyl)pyridin-2-yl)-5-fluoro-1H-pyrazolo[3,4-b]pyridin-3-amine] | – | –
